Reference: ChEMBL document CHEMBL5126502, “Promising applications of steroid сonjugates for cancer research and treatment” (Eur J Med Chem, 2021)

Experiment: Cytotoxicity against human MCF7 cells incubated for 48 hrs by MTT assay
Assay type: toxicity, cell-based

With `C[C@@H]1CC[C@@]2(OC1)O[C@H]1C[C@H]3[C@@H]4CC[C@H]5C[C@@H](OC(=O)[C@@H](N)CO)CC[C@]5(C)[C@H]4CC[C@]3(C)[C@H]1[C@@H]2C` the IC50 at 48 h was 1500 nM.
